Reference: patent publication US6323219A, “Methods for treating immunomediated inflammatory disorders” (Ortho-McNeil Pharmaceutical, Inc., priority 1999, dated 2001)
“Also recorded” adds a separate entry of the source.

T1: Human Skin Chymase (Homo sapiens, UniProt P23946)
T1 construct: purchased Cortex Biochem CP1129; host or cells: human skin
T1 sequence (P23946 22-247): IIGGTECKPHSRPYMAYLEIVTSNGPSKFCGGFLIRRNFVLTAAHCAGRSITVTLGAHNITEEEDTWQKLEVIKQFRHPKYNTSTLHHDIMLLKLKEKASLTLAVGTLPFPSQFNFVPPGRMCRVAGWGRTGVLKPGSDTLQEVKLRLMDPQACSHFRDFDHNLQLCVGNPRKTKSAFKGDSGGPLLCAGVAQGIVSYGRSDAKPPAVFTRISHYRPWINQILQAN

B1: Trypsin: Activates TR and PAR-2 (protein, UniProt P00760 24-246, looked up)
Serine protease 1: IVGGYTCGANTVPYQVSLNSGYHFCGGSLINSQWVVSAAHCYKSGIQVRLGEDNINVVEGNEQFISASKSIVHPSYNSNTLNNDIMLIKLKSAASLNSRVASISLPTSCASAGTQCLISGWGNTKSSGTSYPDVLKCLKAPILSDSSCKSAYPGQITSNMFCAGYLEGGKDSCQGDSGGPVVCSGKLQGIVSWGSGCAQKNKPGVYTKVCNYVSWIKQTIASN
B2: STI: soybean trypsin inhibitor, available from Sigma (protein, UniProt P01070 25-205, looked up)
Trypsin inhibitor A: DFVLDNEGNPLENGGTYYILSDITAFGGIRAAPTGNERCPLTVVQSRNELDKGIGTIISSPYRIRFIAEGHPLSLKFDSFAVIMLCVGIPTEWSVVEDLPEGPAVKIGENKDAMDGWFRLERVSDDEFNNYKLVFCPQQAEDDKCGDIGISIDHDDGTRRLVVSKNKPLVVQFQKLDKESL

How the values were obtained:
S91 cells = assay: Pigmentation of choleratoxin-induced S91 cells; assay type: cell-based, mouse
Description: Indeed, the level of pigmentation of human primary melanocytes or choleratoxin-induced S91 cells, which is reduced by hydroquinone and benzaldehyde, was not affected by Compound I.

[1] = tested on: human primary melanocytes; assay: Pigmentation of primary melanocyte cultures; assay type: cell-based; conditions: for level of pigmentation, human primary melanocytes: melanocytes alone
[2] = tested on: MelanoDerm human epidermal equivalents; conditions: MelanoDerm equivalents are known to respond; cited from earlier work
Human Skin Chymase = biological target: T1, Human Skin Chymase; assay: Chymase 10 μM Screen Method; assay type: biochemical; conditions: 10 μM, room temperature, 5.0 nM enzyme, 3 hours; read-out: Chymase % Inhibition (10 μM)
Description: The enzyme reaction is started by the addition of enzyme ([E]: 1.0 nM human Lung Tryptase; Cortex Biochem CP3033). Data is collected over a period of 30 min. and the initial rate of substrate hydrolysis (Vo (mOD/min)) is calculated. Inhibition is calculated by comparing to wells containing no inhibitor (vehicle) and IC50 s are determined using a four parameter fit logistics model. […] Data is collected over a period of 30 min. and the initial rate of substrate hydrolysis (Vo (mOD/min)) is calculated. Inhibition is calculated by comparing to wells containing no inhibitor (vehicle) and IC50 s are determined using a four parameter fit logistics model. […] The enzyme reaction is started by the addition of enzyme ([E]: 5.0 nM Human Skin Chymase; Cortex Biochem CP1129), and 3 hours following that addition data is collected. After subtracting background (no enzyme addition), inhibition is calculated by comparing to wells containing no inhibitor (vehicle).

human Lung Tryptase = assay: Tryptase IC50 Method; assay type: biochemical; conditions: 37° C., 1.0 nM enzyme, 500 μM substrate
Description: The enzyme reaction is started by the addition of enzyme ([E]: 1.0 nM human Lung Tryptase; Cortex Biochem CP3033). Data is collected over a period of 30 min. and the initial rate of substrate hydrolysis (Vo (mOD/min)) is calculated. Inhibition is calculated by comparing to wells containing no inhibitor (vehicle) and IC50 s are determined using a four parameter fit logistics model. […] The enzyme reaction is started by the addition of enzyme ([E]: 10.0 nM Human Skin Chymase; Cortex Biochem CPl 129). Data is collected over a period of 30 min. and the initial rate of substrate hydrolysis (Vo (mOD/min)) is calculated. Inhibition is calculated by comparing to wells containing no inhibitor (vehicle) and IC50 s are determined using a four parameter fit logistics model. Chymase 10 μM Screen Method: The optical density at 405 nm due to hydrolysis of synthetic chromogenic peptide substrates ([S]: 500 μM Suc-Ala-Ala-Pro-Phe-pNA; Bachem L-1400) is measured in the presence and absence of inhibitor compounds of formula (I) with a microplate reader at room temperature. The enzyme reaction is started by the addition of enzyme ([E]: 5.0 nM Human Skin Chymase; Cortex Biochem CP1129), and 3 hours following that addition data is collected. After subtracting background (no enzyme addition), inhibition is calculated by comparing to wells containing no inhibitor (vehicle).

in vivo = assay: in vivo; parameters: species or system male rats (Long Evans); conditions: rat, iv
Description: Since the compounds of the formula (l) are also potent thrombin inhibitors (see U.S. Pat. No. 5,523,308), an ex vivo thrombin assay was conducted to determine the duration of action of the compounds of Formula I. For this i.v. assay male rats (Long Evans, 350-500 g) were implanted with a teflon cannulae via the femoral artery while under anesthesia (pentobarbital i.p., 35 mg/kg). After surgery, the animals were individually housed in standard cages, fed with rat chow (Hanlan, #8604) and continuously infused with physiological saline to maintain arterial patency, (0.5 mL/h, intra arterial) using a spring-shielded swiveling tether connected to an infusion system. The animals were allowed to recover for at least 24 h after the surgical procedure.
A sample of blood was drawn from the animals 15 min before dosing with the inhibitor (0.25 mL blood is drawn into a syringe containing 0.025 mL of Sigma sodium citrate). The test compound was dispersed in water and delivered to the animal (0.25 mL) via the femoral vein. The inhibitor was given at a concentration (mg/mL) which produced 80% inhibition of VO in a plasma sample at 5 min after infusion. Blood was drawn from the arterial line (blood:sodium citrate, 0.25/0.025 mL ) at regular intervals after dosing (5, 10, 15, 30, 60 and 120 min) and placed in a centrifuge tube. A plasma sample was obtained by centrifuging the blood at 10,000 rpm for 5 min. This sample is analyzed for thrombin inhibition using the chromogenic assay, described below.
The rate of increase in absorbance at 405 nm of synthetic peptides (50 μM Spectozyme® TH (H-D-HHT-Ala-Arg-pNA-2AcOH), American Diagnostica) is measured in the presence of plasma with a microplate reader (Molecular Devices) at 37° C. using an aqueous buffer (10 mM Tris, 10 mM Hepes, 150 mM NaCl, 0.1% PEG; pH 7.4). The buffer was added to the plasma samples (1:1) dilution prior to delivery to the microplate (1:5 and 1:50 for final plasma dilutions of 1:10 and 1:100 respectively) followed by the enzyme (1 nM human α thrombin). Datum was collected over a 30 min period and the initial rate of substrate hydrolysis (V0 (mOD/min)) was calculated with an analysis program (Softmax, Molecular Devices).
The time to half plasma elimination (t 1/2) was calculated from the slope of VO vs. time, using the following equation: […]. These datum are presented in Table L. In Table L, the compound # corresponds to the compound number described in U.S. Pat. No. 5,523,308.

[3] = tested on: MelanoDerm human epidermal equivalents; assay: Pigmentation of MelanoDerm epidermal equivalents (DOPA, H&E or F&M staining, image analysis); assay type: cell-based; conditions: for pigmentation/melanogenesis in epidermal equivalents: MelanoDerm, three days of treatment, stained on fourth day, FIG. 1B, FIG. 2, FIG. 3
[4] = tested on: Co-cultures (no K-M contact); assay: Pigmentation of keratinocyte-melanocyte co-cultures without K-M contact; assay type: cell-based, human; conditions: Table D; three days, DOPA stained on fourth day
Description: Since PAR-2 is not expressed in melanocytes, we tested the possible requirement of keratinocyte-melanocyte interactions for the depigmenting effect of Compound I. Primary melanocyte cultures were compared to identical cultures plated under epidermal equivalents (EpiDerm, lacking melanocytes) to create a co-culture with no contact between keratinocytes and melanocytes. These were also compared to MelanoDerm equivalents, where melanocytes are present in the basal layer of the equivalent. Cultures were treated for three days with Compound I, with the PAR-2 agonist SLIGRL, and with the TR agonist TFLLRNPNDK, as set forth in Table D, and DOPA stained on the fourth day. In Table D, keratinocytes are indicated by "K", melanocytes are indicated by "M" and lack of keratinocyte-melanocyte contact is indicated as "no K-M contact". […] In MelanoDerm equivalents, compound I reduced and SLIGRL induced pigmentation, while TFLLRNPNDK had no effect.

Yucatan swine skin = Yucatan swine skin pigmentation, topical, visual/chromameter/histology
Description: Each compound was applied to two sites on the pig twice daily, five days per week for eight weeks. After eight weeks of treatment, chromameter measurements were taken.
Two sites per concentration were placed on opposite sides of the swine dorsum. Chromameter measurements were taken before treatment started and every two weeks thereafter. Pictures were taken periodically and at the end of the experiment.

[5] = Table D, three days, DOPA stained on fourth day

Molecule | inhibition at 10 µM (Human Skin Chymase) [%] | IC50 (human Lung Tryptase) [nM] | half-life (in vivo) [min] | other results
O=Cc1ccccc1 [benzaldehyde] | – | – | – | level of pigmentation, choleratoxin-induced S91 cells (S91 cells): reduced; level of pigmentation, human primary melanocytes [1]: reduced; pigmentation of epidermal equivalents (known response to whitening agents) [2]: reducing pigmentation
CN[C@H](Cc1ccccc1)C(=O)N1CCC[C@H]1C(=O)N[C@@H](CCCNC(=N)N)C(=O)c1nc2ccc(F)cc2s1 [Compound 17] | 3 | 11.1 | 8 | –
Oc1ccc(O)cc1 [hydroquinone] | – | – | – | level of pigmentation, choleratoxin-induced S91 cells (S91 cells): reduced; level of pigmentation, human primary melanocytes [1]: reduced; pigmentation of epidermal equivalents (known response to whitening agents) [2]: reducing pigmentation
CN[C@H](Cc1ccccc1)C(=O)N1CCC[C@H]1C(=O)N[C@@H](CCCNC(=N)N)C(=O)c1nc2c(ccc3ccccc32)s1 [Compound 52] | 4 | 33.7 | 8 | –
CCCC[C@H](NC(=O)[C@@H]1CCCN1C(=O)[C@@H](Cc1ccccc1)NC)C(=O)c1nc2ccccc2s1 [Compound 39] | 37 | > 10000 | – | –
TFLLRNPNDK [reference compound] | – | – | – | pigmentation/melanogenesis in epidermal equivalents [3]: no effect on pigmentation; effect on pigmentation, MelanoDerm (K-M contact) [3, 5]: no effect; effect on pigmentation, Co-cultures (no K-M contact) [4]: no effect; effect on pigmentation, Melanocytes (no K) [1, 5]: no effect
CN[C@H](Cc1ccccc1)C(=O)N1CCC[C@H]1C(=O)N[C@@H](CCCNC(=N)N)C(=O)c1nc2ccc(C(=O)OC)cc2s1 [Compound 12] | 2 | 1.7 | 43 | –
N=C(N)NCCC[C@H](NC(=O)C1CCCC1)C(=O)c1nc2ccccc2s1 [Compound 31] | 0 | 828 | – | –
CN[C@H](Cc1ccccc1)C(=O)N1CCC[C@H]1C(=O)N[C@@H](CCCNC(=N)N)C(=O)c1nccs1 [Compound 4] | – | – | 16 | –
CN[C@H](Cc1ccccc1)C(=O)N1CCC[C@H]1C(=O)N[C@@H](CCCOC)C(=O)c1nc2ccccc2s1 [Compound 53] | 5 | – | – | –
Hirudin | – | – | – | pigmentation/melanogenesis in epidermal equivalents [3]: no effect on pigmentation
CN[C@H](Cc1ccccc1)C(=O)N1CCC[C@H]1C(=O)N[C@@H](CCCN=C(N)N)C(=O)c1nc2ccccc2o1 [Compound 5] | – | – | 18 | –
CN[C@H](Cc1ccccc1)C(=O)N1CCC[C@H]1C(=O)N[C@@H](CCCNC(=N)N)C(=O)c1nc2ccccc2[nH]1 [Compound 35] | 4 | 15.1 | 11 | –
N=C(N)NCCC[C@H](NC(=O)[C@@H]1CCCN1C(=O)CC(c1ccccc1)c1ccccc1)C(=O)c1nc2ccccc2s1 [Compound 3] | – | – | 6 | –
CN[C@H](Cc1c(F)c(F)c(F)c(F)c1F)C(=O)N1CCC[C@H]1C(=O)N[C@@H](CCCNC(=N)N)C(=O)c1nc2ccccc2s1 [Compound 30] | 6 | 2.7 | 6 | –
SFLLRN [reference compound] | – | – | – | pigmentation/melanogenesis in epidermal equivalents [3]: trend of lightening or reducing pigmentation; effect on skin pigmentation (Yucatan swine skin; 10 μM, twice daily, five days per week, eight weeks): no significant effects
B1 | – | – | – | pigmentation, dose-response ([3]; increasing concentrations, SLIGRL 0, 10 and 50 μM, Compound I 0.1 μM to 1 μM, FIG. 4A): has the same effect
B2 | – | – | – | pigmentation/melanogenesis in epidermal equivalents [3]: very effective in inhibiting melanogenesis; also recorded: reduces pigmentation; visual lightness of treated sites versus surrounding skin (Yucatan swine skin; twice a day, five days a week, at seven weeks): visually lighter than the surrounding skin
